In ChEMBL document CHEMBL1144939, “Modeling the adenosine receptors: comparison of the binding domains of A2A agonists and antagonists” (J Med Chem, 2003) one finds Ki and Ratio data, which are given here for 4 compounds.

Molecules are shown by their SMILES.

For experiment [1], the target named is Adenosine receptor A2a (Homo sapiens, UniProt P29274, T88D). Put plainly: Binding affinity against T88D human adenosine A2A receptor expressed in CHO cells using [3H]- ZM-241385. It is filed as cell-based.
In experiment [2] the target is Adenosine receptor A2a (Homo sapiens, UniProt P29274, Q89D). The experiment can be described thus: biochemical.
The target in experiment [3] is Adenosine receptor A2a (Homo sapiens, UniProt P29274, H278E). The experiment can be described thus: biochemical.
Experiment [4] concerns the target Adenosine receptor A2a (Homo sapiens, UniProt P29274, H278D). The experiment can be described thus: biochemical.
The target of experiment [5] is Adenosine receptor A2a (Homo sapiens, UniProt P29274, S277E). The experiment can be described thus: biochemical.
For experiment [6], the target named is Adenosine receptor A2a (Homo sapiens, UniProt P29274). The experiment can be described thus: biochemical.
Description: Binding affinity against WT human adenosine A2A receptor expressed in CHO cells using [3H]- ZM-241385
Experiment [7] has as its target Adenosine receptor A2a (Homo sapiens, UniProt P29274, T88E). Put plainly: Binding affinity against T88E human adenosine A2A receptor expressed in CHO cells using [3H]- ZM-241385. The format is cell-based.
Experiment [8] deals with Adenosine receptors; A1 & A2a (Homo sapiens) (UniProt P30542+P29274). The experiment can be described thus: Selectivity ratio for binding to human adenosine A1 and A2A receptors. It is filed as protein assay.

Adenosine receptor A2a (Homo sapiens, UniProt P29274, T88E), sequence (P29274 whole entry T88E): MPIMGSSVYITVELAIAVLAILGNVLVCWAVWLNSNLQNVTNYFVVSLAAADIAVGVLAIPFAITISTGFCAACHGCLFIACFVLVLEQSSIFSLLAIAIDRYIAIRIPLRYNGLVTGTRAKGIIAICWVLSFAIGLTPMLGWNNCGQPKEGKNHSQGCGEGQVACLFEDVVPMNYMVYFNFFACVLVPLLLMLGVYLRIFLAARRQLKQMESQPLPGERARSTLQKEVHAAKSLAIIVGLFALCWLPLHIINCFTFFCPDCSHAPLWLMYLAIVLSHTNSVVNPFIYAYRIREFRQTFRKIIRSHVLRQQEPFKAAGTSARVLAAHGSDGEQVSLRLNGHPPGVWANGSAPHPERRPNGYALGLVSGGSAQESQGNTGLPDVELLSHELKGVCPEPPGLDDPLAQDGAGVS
Adenosine receptor A2a (Homo sapiens, UniProt P29274), sequence (P29274 whole entry): as the sequence (P29274 whole entry T88E) above, with E88T counted along it
Adenosine receptor A2a (Homo sapiens, UniProt P29274, S277E), sequence (P29274 whole entry S277E): as the sequence (P29274 whole entry T88E) above, with E88T, S277E counted along it
Adenosine receptor A2a (Homo sapiens, UniProt P29274, Q89D), sequence (P29274 whole entry Q89D): as the sequence (P29274 whole entry T88E) above, with E88T, Q89D counted along it
Adenosine receptor A2a (Homo sapiens, UniProt P29274, T88D), sequence (P29274 whole entry T88D): as the sequence (P29274 whole entry T88E) above, with E88D counted along it
Adenosine receptor A2a (Homo sapiens, UniProt P29274, H278E), sequence (P29274 whole entry H278E): as the sequence (P29274 whole entry T88E) above, with E88T, H278E counted along it
Adenosine receptor A2a (Homo sapiens, UniProt P29274, H278D), sequence (P29274 whole entry H278D): as the sequence (P29274 whole entry T88E) above, with E88T, H278D counted along it

Consider `N[C@H]1[C@@H](O)[C@H](n2cnc3c(NCc4cccc(I)c4)ncnc32)O[C@@H]1CO`, for which the Ki on Adenosine receptor A2a [1] was found to be 18 µM; on Adenosine receptor A2a [2] it was 6.4 µM; on Adenosine receptor A2a [3], 64 µM; at Adenosine receptor A2a [4] it was 87 µM; at Adenosine receptor A2a [5] it was 88 µM; at Adenosine receptor A2a [6] it was 0.067 µM. In addition, the affinity on Adenosine receptor A2a [7] corresponds to a Ki of 57 µM.
`NC[C@H]1[C@@H](O)[C@H](n2cnc3c(NCc4cccc(I)c4)ncnc32)O[C@@H]1CO`: the Ki was determined as 6.5 µM on Adenosine receptor A2a [1]; 58 µM on Adenosine receptor A2a [2]; 56 µM on Adenosine receptor A2a [3]; 59 µM at Adenosine receptor A2a [4]; 67 µM at Adenosine receptor A2a [5]; 0.079 µM at Adenosine receptor A2a [6]. In addition, the Ki at Adenosine receptor A2a [7] is 64 µM.
On to `Nc1ccc(CCCn2ncc3c2nc(N)n2nc(-c4ccco4)nc32)cc1`, for which the Ratio in experiment [8] is 9820.
In the case of `NC[C@H]1O[C@@H](n2cnc3c(N)ncnc32)[C@H](O)[C@@H]1O`, the Ki at Adenosine receptor A2a [1] was determined as 407 µM; on Adenosine receptor A2a [2], 52 µM; at Adenosine receptor A2a [5], 604 µM; on Adenosine receptor A2a [6], 0.534 µM; at Adenosine receptor A2a [7], 492 µM.
